Molecular target: T1, Fyn-mTMC2-mCherry+mTMIE channel (Mus musculus, UniProt Q8R4P4)
T1 construct: expressed in transfected cells; host or cells: PK-HEK293T (PIEZO1-knockout HEK293T)
T1 sequence (Q8R4P4 1-888): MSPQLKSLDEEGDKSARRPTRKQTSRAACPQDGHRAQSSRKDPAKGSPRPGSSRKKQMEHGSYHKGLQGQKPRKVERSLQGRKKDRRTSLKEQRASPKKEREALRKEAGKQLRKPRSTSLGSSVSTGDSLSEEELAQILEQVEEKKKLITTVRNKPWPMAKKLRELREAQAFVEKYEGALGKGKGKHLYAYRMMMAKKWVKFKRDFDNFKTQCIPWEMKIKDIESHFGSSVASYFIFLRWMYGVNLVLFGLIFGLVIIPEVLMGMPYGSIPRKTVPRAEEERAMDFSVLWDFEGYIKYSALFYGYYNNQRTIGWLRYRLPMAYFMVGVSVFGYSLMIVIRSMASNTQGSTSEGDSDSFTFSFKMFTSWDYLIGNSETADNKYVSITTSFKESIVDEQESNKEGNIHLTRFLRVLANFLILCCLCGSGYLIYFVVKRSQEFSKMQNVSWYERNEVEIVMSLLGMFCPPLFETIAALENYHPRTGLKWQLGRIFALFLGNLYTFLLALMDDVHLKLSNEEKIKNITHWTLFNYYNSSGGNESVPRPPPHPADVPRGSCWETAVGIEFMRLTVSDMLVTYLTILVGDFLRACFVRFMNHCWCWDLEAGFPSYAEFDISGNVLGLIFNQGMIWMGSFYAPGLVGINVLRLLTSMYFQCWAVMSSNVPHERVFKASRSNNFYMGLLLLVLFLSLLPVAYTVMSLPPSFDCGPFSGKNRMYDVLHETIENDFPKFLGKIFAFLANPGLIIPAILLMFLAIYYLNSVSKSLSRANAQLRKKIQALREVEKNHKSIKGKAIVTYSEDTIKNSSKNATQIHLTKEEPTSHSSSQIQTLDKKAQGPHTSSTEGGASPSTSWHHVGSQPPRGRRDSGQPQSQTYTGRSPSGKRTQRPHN
T1 sequence (Q8K467 29-153 partner): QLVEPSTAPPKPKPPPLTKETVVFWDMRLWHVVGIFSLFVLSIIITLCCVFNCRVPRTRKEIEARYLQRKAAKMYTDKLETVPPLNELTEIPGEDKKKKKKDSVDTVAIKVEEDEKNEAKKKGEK
Experiment: Whole-cell poking patch-clamp assay, DHS sensitivity of MS currents
Type: cell-based
Details: 2 mM DHS in the bath; PK-HEK293T cells co-expressing Fyn-mTMC2-mCherry and mTMIE; 4 experiments, p=0.0044
Experimental: Briefly, PK-HEK293T cells were incubated for 24 h after transfection before performing the whole-cell patch-clamp assay at room temperature. For co-transfection of two plasmids, the w/w ratio of TMC1/2 plasmids and TMIE plasmid was 3:1. The bath solution contained (in mM) 137 NaCl, 5.8 KCl, 0.7 NaH2PO4, 10 HEPES, 1.3 CaCl2, 0.9 MgCl2, 5.6 glucose (pH 7.3 with NaOH); the pipette solution contained (in mM) 137 CsCl, 0.1 EGTA, 10 HEPES, 3.5 MgCl2 (pH 7.3 with CsOH). The recording glass pipettes (1B150-4 Borosilicate Glass Capillaries, World Precision Instruments) were pulled and polished using a pipette puller (DMZ, Zeitz Instruments) and featured a resistance of 3-5 MQ. The mechanical stimulus was applied by poking cells with a fire-polished glass probe with a tip diameter of 2-3 μm. […] The reversal potentials were calculated using Vpipette at zero current with correction for the junction potential of the pipette and bath solutions (+1.2 mV for whole cell recording). Data were analyzed with Clampfit 10.7 (Molecular Devices). For the measurement of the inactivation time constant, all current responses, except for traces with a noticeable shift in baseline, were individually calculated and averaged.

DHS-sensitivity of whole-cell MS currents: DHS-sensitive
SMILES: CN[C@@H]1[C@H](O[C@H]2[C@H](O[C@H]3[C@H](O)[C@@H](O)[C@H](NC(=N)N)[C@@H](O)[C@@H]3NC(=N)N)O[C@@H](C)[C@]2(O)CO)O[C@@H](CO)[C@H](O)[C@H]1O [DHS, dihydrostreptomycin]

From patent publication US20250145676A1, “FUNCTIONAL EXPRESSION OF ECTOPIC TMC1 AND TMC2 IN HETEROLOGOUS CELLS” (The Hong Kong University of Science and Technology, priority 2023, published 2025)
